Consider one compound from patent US4939159A, “Azaindole derivatives useful as cholesterol biosynthesis inhibitors” (Sandoz Pharm. Corp., priority 1989, dated 1990).

The subject of this experiment is 3β-hydroxysterol synthesis. Briefly: Test B. In Vivo Cholesterol Biosynthesis Inhibition Test. The conditions noted are these: Rattus norvegicus, po; rats, orally administered; read-out: ED50 (dose producing 50% inhibition of 3β-hydroxysterol synthesis).

Experimental: Test B. In Yivo Cholesterol Biosynthesis Inhibition Test:
In this test the rats are orally administered the test substance (compound of Formula I) at a dose of 0.025-200 mg/kg body weight. The obtained ED50 the dose of the test substance observed or calculated to produce a 50% inhibition of 3β -hydroxysterol synthesis.

For orientation: ED50 means the dose at which the effect has come halfway, by size or by number of responders. Regarding `CC[C@H](C)C(=O)O[C@H]1C[C@@H](C)C=C2C=C[C@H](C)[C@H](CC[C@@H]3C[C@@H](O)CC(=O)O3)[C@H]21` [Mevinolin], the ED50 is 0.38 mg/kg.
